Results published in US20230310634A1, “ANTI-HUMAN VISTA ANTIBODIES AND USE THEREOF” (IMMUNEXT, INC., priority 2020, published 2023).
Structures can show the parent of a compound that is named as a salt.

System: LPS stimulated human PBMCs
Test: In vitro potency of steroid payloads in LPS stimulated human PBMCs (IL-1β, IL-6 ELISA)
Assay type: cell-based

| SMILES | steroid potency as free payloads in LPS-activated human PBMCS (conclusions) | IL-1β production (Experiment 2, 1000-1 nM, 1 ng/mL LPS, 24 hr, n=1 donor) | IL-1β production (Experiment 3, 1000-0.2 nM, 1 ng/mL LPS, 24 hr, n=2 donors) | IL-1β production (Experiment 6, 1000-0.16 nM, 1 ng/mL LPS, 24 hr, n=1) | IL-1β and IL-6 production (Experiment 1, 1000-1 nM, 1 ng/mL LPS, 24 hr, n=1 donor) |
| --- | --- | --- | --- | --- | --- |
| C[C@]12C=CC(=O)C=C1CC[C@@H]1[C@@H]2[C@@H](O)C[C@@]2(C)[C@H]1C[C@H]1O[C@H](c3cnc(Cc4cccc(N)c4)s3)O[C@]12C(=O)CO [INX-SM-56, (6aR,6bS,7S, 8aS,8bS,10S,11aR,12aS,12bS)-10-(2-(3-aminobenzyl)thiazol-5-yl)-7-hydroxy-8b-(2-hydroxyacetyl)-6a,8a-dimethyl-1,2,6a,6b,7,8,8a,8b, 11a,12,12a,12b-dodecahydro-4H-naphtho[2′,1′:4,5]indeno[1,2-d][1,3]dioxol-4-one] | did not show potency | did not show inhibition |  |  |  |
| C[C@]12C=CC(=O)C=C1CC[C@@H]1[C@@H]2[C@@H](O)C[C@@]2(C)[C@H]1C[C@H]1OC(c3ccc(CC4(N)CC(F)(F)C4)cc3)O[C@]12C(=O)CO (stereo partly drawn) [INX-SM-35, (6aR,6bS,7S,8aS,8bS,10R,11aR,12aS,12bS)-10-(4-((1-amino-3,3-difluorocyclobutyl)methyl)phenyl)-7-hydroxy-8b-(2-hydroxyacetyl)-6a,8a-dimethyl 1,2,6a,6b,7,8,8a,8b,11a,12,12a,12b-dodecahydro-4H-naphtho[2′,1′:4,5]indeno[1,2-d][1,3]dioxol-4-one] | varying degrees of dose dependent steroid potency |  | dose dependent inhibition |  |  |
| C[C@]12C=CC(=O)C=C1CC[C@@H]1[C@@H]2[C@@H](O)C[C@@]2(C)[C@H]1C[C@H]1O[C@@H](c3ccc(Cc4csc(N)n4)cc3)O[C@]12C(=O)CO [INX-SM-2, (6aR,6bS,7S,8aS,8bS,10R,11aR,12aS,12bS)-10-(4-((2-aminothiazol-4-yl)methyl)phenyl)-7-hydroxy-8b-(2-hydroxyacetyl)-6a,8a-dimethyl-1,2,6a,6b,7,8,8a,8b,11a,12,12a,12b-dodecahydro-4H-naphtho[2′,1′:4,5]indeno[1,2-d][1,3]dioxol-4-one AcOH salt] | varying degrees of dose dependent steroid potency |  |  | dose-dependent inhibition |  |
| C[C@]12C=CC(=O)C=C1CC[C@@H]1[C@@H]2[C@@H](O)C[C@@]2(C)[C@H]1C[C@H]1O[C@H](c3ccc(CC45CC(N)(C4)C5)cc3)O[C@]12C(=O)CO [INX-SM-53, (6aR,6bS,7S,8aS,8bS,10S,11aR,12aS,12bS)-10-(4-((3-aminobicyclo[1.1.1]pentan-1-yl)methyl)phenyl)-7-hydroxy-8b-(2-hydroxyacetyl)-6a,8a-dimethyl-1,2,6a,6b,7,8,8a,8b, 11a,12,12a,12b-dodecahydro-4H-naphtho[2′,1′:4,5]indeno[1,2-d][1,3]dioxol-4-one] | did not show potency |  |  |  | did not show inhibition |
